# Data taken from ChEMBL document CHEMBL5233246, “CT1-3, a novel magnolol-sulforaphane hybrid suppresses tumorigenesis through inducing mitochondria-mediated apoptosis and inhibiting epithelial mesenchymal transition” (Eur J Med Chem, 2020).
# pIC50: −log10 of the molar value. Activity calls are given as the source filed them. The calls are words filed in the database; no cut-off is given here.
# What was measured:
# L02 = assay: Cytotoxicity against human L02 cells assessed as reduction in cell viability incubated for 8 hrs by CCK-8 assay; assay type: toxicity, cell-based; conditions: l02, 8 h
# OVCAR-3 [1] = assay: Antiproliferative activity against human OVCAR-3 cells assessed as reduction in cell viability incubated for 24 hrs by CCK-8 assay; assay type: functional, cell-based; conditions: OVCAR-3, 24 h
# MCF7 = assay: Antiproliferative activity against human MCF7 cells assessed as reduction in cell viability incubated for 24 hrs by CCK-8 assay; assay type: functional, cell-based; conditions: MCF7, 24 h
# NCI-H460 [2] = assay: Induction of apoptosis in human NCI-H460 cells assessed as early apoptotic cells at 10 uM incubated for 24 hrs by annexin V-FITC/propidium iodide staining based flow cytometry analysis (reference value: 0.8%); assay type: functional
# A549 [3] = assay: Inhibition of cell migration in human A549 cells at 7.5 uM incubated for 24 hrs by crystal violet staining based transwell assay; assay type: functional
# NCI-H460 [4] = assay: Induction of apoptosis in human NCI-H460 cells assessed as late apoptotic cells at 10 uM incubated for 24 hrs by annexin V-FITC/propidium iodide staining based flow cytometry analysis (reference value: 0.4%); assay type: functional
# LoVo [5] = assay: Induction of apoptosis in human LoVo cells assessed as decrease in Bcl-2 protein expression level at 7.5 uM incubated for 24 hrs by western blot assay; assay type: functional, cell-based
# SW480 = assay: Antiproliferative activity against human SW480 cells assessed as reduction in cell viability incubated for 24 hrs by CCK-8 assay; assay type: functional, cell-based; conditions: SW480, 24 h
# NCI-H460 [6] = assay: Inhibition of cell migration in human NCI-H460 cells at 7.5 uM incubated for 24 hrs by crystal violet staining based transwell assay; assay type: functional
# MDA-MB-231 = assay: Antitumor activity against human MDA-MB-231 cells xenografted in BALB/c mouse assessed as reduction in tumor growth at 20 mg/kg,ip measured after 28 days; assay type: functional, organism-based; conditions: time 28.0 day
# A549 [7] = assay: Induction of apoptosis in human A549 cells assessed as viable cells at 10 uM incubated for 24 hrs by annexin V-FITC/propidium iodide staining based flow cytometry analysis (reference value: 95.2%); assay type: functional; conditions: read-out: Activity
# LoVo [8] = assay: Inhibition of cell invasion in human LoVo cells at 7.5 uM incubated for 24 hrs by matrigel based transwell assay; assay type: functional
# NCI-H460 [9] = assay: Inhibition of cell migration in human NCI-H460 cells assessed as upregulation of E-cadherin protein expression at 7.5 uM incubated for 24 hrs by western blot analysis; assay type: functional, cell-based
# [10] = Toxicity in BALB/c mouse xenografted with human MDA-MB-231 cells assessed as kidney pathological change at 20 mg/kg,ip measured after 28 days; assay type: organism-based; conditions: in vivo, 672 h, time 28 day
# NCI-H460 [11] = assay: Induction of apoptosis in human NCI-H460 cells assessed as increase in Bax protein expression level at 7.5 uM incubated for 24 hrs by western blot assay; assay type: functional, cell-based
# A549 [12] = assay: Inhibition of cell invasion in human A549 cells at 7.5 uM incubated for 24 hrs by matrigel based transwell assay; assay type: functional
# NCI-H460 [13] = assay: Inhibition of colony formation in human NCI-H460 cells incubated for 48 hrs by Giemsa staining based microscopy; assay type: functional, cell-based
# LoVo [14] = assay: Inhibition of cell migration in human LoVo cells assessed as downregulation of Snail protein expression at 7.5 uM incubated for 24 hrs by western blot analysis; assay type: functional, cell-based
# NCI-H460 [15] = assay: Induction of apoptosis in human NCI-H460 cells assessed as decrease in Bcl-2 protein expression level at 7.5 uM incubated for 24 hrs by western blot assay; assay type: functional, cell-based
# NCI-H460 [16] = assay: Inhibition of cell migration in human NCI-H460 cells assessed as downregulation of Snail protein expression at 7.5 uM incubated for 24 hrs by western blot analysis; assay type: functional, cell-based
# NCI-H460 [17] = assay: Induction of apoptosis in human NCI-H460 cells assessed as decrease in XIAP protein expression level at 7.5 uM incubated for 24 hrs by western blot assay; assay type: functional, cell-based
# NCI-H460 [18] = assay: Induction of apoptosis in human NCI-H460 cells assessed as increase in ROS level at 10 uM incubated for 8 hrs by H2DCFDA staining based fluorescence microscopic assay; assay type: functional, cell-based
# LoVo [19] = assay: Induction of apoptosis in human LoVo cells assessed as late apoptotic cells at 10 uM incubated for 24 hrs by annexin V-FITC/propidium iodide staining based flow cytometry analysis (reference value: 0.4%); assay type: functional
# LoVo [20] = assay: Induction of apoptosis in human LoVo cells assessed as viable cells at 10 uM incubated for 24 hrs by annexin V-FITC/propidium iodide staining based flow cytometry analysis (reference value: 98%); assay type: functional; conditions: read-out: Activity
# LoVo [21] = assay: Induction of apoptosis in human LoVo cells assessed as necrotic cells at 10 uM incubated for 24 hrs by annexin V-FITC/propidium iodide staining based flow cytometry analysis (reference value: 0.3%); assay type: functional
# OVCAR-3 [22] = assay: Inhibition of colony formation in human OVCAR-3 cells incubated for 48 hrs by Giemsa staining based microscopy; assay type: functional, cell-based
# HepG2 = assay: Antiproliferative activity against human HepG2 cells assessed as reduction in cell viability incubated for 24 hrs by CCK-8 assay; assay type: functional, cell-based; conditions: HepG2, 24 h
# NCI-H460 [23] = assay: Induction of apoptosis in human NCI-H460 cells assessed as necrotic cells at 10 uM incubated for 24 hrs by annexin V-FITC/propidium iodide staining based flow cytometry analysis (reference value: 0.9%); assay type: functional
# LoVo [24] = assay: Inhibition of colony formation in human LoVo cells incubated for 48 hrs by Giemsa staining based microscopy; assay type: functional, cell-based
# A549 [25] = assay: Antiproliferative activity against human A549 cells assessed as reduction in cell viability incubated for 24 hrs by CCK-8 assay; assay type: functional, cell-based; conditions: A549, 24 h
# NCI-H1650 = assay: Inhibition of colony formation in human NCI-H1650 cells incubated for 48 hrs by Giemsa staining based microscopy; assay type: functional, cell-based
# LoVo [26] = assay: Induction of apoptosis in human LoVo cells assessed as increase in ROS level at 10 uM incubated for 8 hrs by H2DCFDA staining based fluorescence microscopic assay; assay type: functional, cell-based
# A549 [27] = assay: Induction of apoptosis in human A549 cells assessed as increase in ROS level at 10 uM incubated for 8 hrs by H2DCFDA staining based fluorescence microscopic assay; assay type: functional, cell-based
smiles,measurement,setting,value
C=CCc1ccc(O)c(-c2cc(CC=C)ccc2OCC[S+]([O-])CCCCN=C=S)c1 (stereo not drawn),Activity,L02,Non-Toxic
same,pIC50,OVCAR-3 [1],5.27
same,pIC50,MCF7,4.90
same,Activity,NCI-H460 [2],8.2%
same,inhibition,A549 [3],Active
same,Activity,NCI-H460 [4],72.9%
same,Activity,LoVo [5],Active
same,pIC50,SW480,5.22
same,inhibition,NCI-H460 [6],Active
same,Activity,MDA-MB-231,Active
same,viability at 10 µM,A549 [7],50.1%
same,inhibition,LoVo [8],Active
same,inhibition,NCI-H460 [9],Active
same,Activity,[10],Non-Toxic
same,Activity,NCI-H460 [11],Active
same,inhibition,A549 [12],Active
same,inhibition,NCI-H460 [13],Active
same,inhibition,LoVo [14],Active
same,Activity,NCI-H460 [15],Active
same,inhibition,NCI-H460 [16],Active
same,Activity,NCI-H460 [17],Active
same,Activity,NCI-H460 [18],Active
same,Activity,LoVo [19],23.3%
same,viability at 10 µM,LoVo [20],22%
same,Activity,LoVo [21],38%
same,inhibition,OVCAR-3 [22],Active
same,pIC50,HepG2,5.20
same,Activity,NCI-H460 [23],3.6%
same,inhibition,LoVo [24],Active
same,pIC50,A549 [25],5.04
same,inhibition,NCI-H1650,Active
same,Activity,LoVo [26],Active
same,Activity,A549 [27],Active
